Measurements reported in patent US11814652B2, “Pluripotent stem cell differentiation-promoting agent” (Oriental Yeast Co., Ltd., priority 2018, dated 2023).

What was measured:
[1] = tested on: iPS cells 201B7 strain; assay: Flow cytometry of Brachyury/CD56 after mesodermal differentiation-induction following undifferentiated culture with β-NMN (Example 6); assay type: cell-based, human; conditions: β-NMN 0.25 or 1 mM before mesodermal differentiation-induction; 5th or 7th day; versus absence of β-NMN
Protocol: The effects of culturing in the presence of β-NMN before induction of differentiation on the mesodermal differentiation-induction of iPS cells was examined. As the iPS cells, the 201B7 strain was used. The iPS cells were cultured in a culture dish in the same manner as in Example 5, and when the confluent reached 70 to 80%, the iPS cells were detached from the culture dish and collected. The collected iPS cells were seeded at 1×10^5 cells/well in a 24-well plate coated with Matrigel (manufactured by Corning Incorporated) according to the manufacturer's protocol. The cells in the 24-well plate were cultured for 1 day in a culture medium prepared by removing β-NMN from the culture medium when culturing in the culture dish and adjusting to have a final concentration of Rock inhibitor of 10 μM. From the 1st day after seeding, the medium was replaced every day with a culture medium for mesodermal differentiation-induction of “STEMdiff Trilineage Differentiation kit” (manufactured by STEMCELL Technologies). In the same manner as in Example 3, the cells sampled on the 5th or 7th day after seeding were stained with a fluorescently labeled anti-Brachyury antibody and a fluorescently labeled anti-CD56 antibody, and a flow cytometer was used to analyze the fluorescence intensity of the anti-Brachyury antibody and the fluorescence intensity of the anti-CD56 antibody in each sample. […]

[2] = tested on: Human adipose tissue-derived mesenchymal stem cells; assay: Alizarin Red S staining after bone differentiation-induction of mesenchymal stem cells grown with β-NMN (Example 8); assay type: cell-based; conditions: growth medium supplemented with 0.1 mM or 0.25 mM of β-NMN; 14 days after initiation of bone differentiation-induction; compared with 0 mM
Text: The effects of culturing in the presence of β-NMN before bone differentiation-induction of mesenchymal stern cells were examined. Human adipose tissue-derived mesenchymal stem cells (manufactured by Lonza, Cat #PT5006) were used as the mesenchymal stem cells. As a growth medium, a culture medium prepared by appropriately adding β-MNM to “MSCGM Bullet Kit” (manufactured by Lonza, Cat #PT3001) was used. As a bone differentiation-inducing culture medium, a culture medium prepared by adjusting an α-MEM culture medium to have a final concentration of fetal bovine serum of 10% by volume, a final concentration of dexamethasone of 10 nM, a final concentration of β-glycerophosphate of 10 mM, a final concentration of ascorbic acid of 50 μg/mL, and a final concentration of penicillin-streptomycin of 0.1%. The mesenchymal stem cells were seeded in a culture dish at 5×10^3 cells/cm^2 and statically cultured in a growth culture medium not containing β-MNM at 37° C., 5% by volume (CO2) for 1 day. From one day after seeding, the culture medium was replaced every 2 days with a growth culture medium adjusted to have a final concentration of β-MNM of 0, 0.1, or 0.25 mM. Further, when the cell density in the culture dish reached 80 to 90% of the confluent, the cells were passaged. […]

[3] = tested on: Human adipose tissue-derived mesenchymal stem cells; assay: Oil red O staining after adipocyte differentiation-induction of mesenchymal stem cells grown with β-NMN (Example 9); assay type: cell-based; conditions: growth medium supplemented with 0.1 mM or 0.25 mM of β-NMN; 14th day of adipocyte differentiation-induction; compared with 0 mM
Text: The effects of culturing in the presence of β-NMN before adipocyte differentiation-induction of mesenchymal stern cells were examined. In the same manner as in Example 8, Human adipose tissue-derived mesenchymal stem cells (manufactured by Lonza, Cat #PT5006) were used as the mesenchymal stem cells. As a growth culture medium, a culture medium prepared by appropriately adding β-MNM to “MSCGM Bullet Kit” (manufactured by Lonza, Cat #PT3001) was used as in Example 8. As an adipocyte differentiation-inducing culture medium, a culture medium prepared by adjusting a DMEM-High Glucose medium to have a final concentration of fetal bovine serum of 10% by volume, a final concentration of IBMX of 0.5 mM, a final concentration of dexamethasone of 1 μM, a final concentration of indomethacin of 200 μM, and a final concentration of penicillin-streptomycin of 0.1% was used. The culture of the mesenchymal stem cells before differentiation-induction was performed in the same manner as in Example 8. The differentiation induction was performed in the same manner as in Example 8 except that the adipocyte differentiation-inducing culture medium was used instead of the bone differentiation-inducing culture medium. On the 14th day from the initiation of the differentiation-induction, the staining test and the cell RNA recovery were performed. […]

## NC(=O)c1ccc[n+]([C@@H]2O[C@H](COP(=O)([O-])O)[C@@H](O)[C@H]2O)c1 [β-NMN, β-nicotinamide mononucleotide]
[1]
  ratio of Brachyury-positive CD56-positive cells: no clear difference
[2]
  calcium deposition (Alizarin Red S staining): strongly observed
[3]
  accumulation of lipid droplets (oil red O staining): more accumulation of lipid droplets
